Our source for the TGI values is PubChem BioAssay (NCI).

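Cells were grown in 96-well plates and exposed to each compound for 48 hours at five concentrations; endpoints were interpolated linearly between bracketing concentrations, or set to the highest concentration if not reached. TGI is the concentration that stops growth completely.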

Test systems include UO-31 renal; MDA-MB-231 breast; COLO 205 colon; EKVX NSCLC; 786-0 renal; HCT-116 colon; HL-60(TB) leukemia; DU-145 prostate; MALME-3M melanoma; UACC-257 melanoma; RPMI-8226 leukemia; SK-OV-3 ovarian; A549 NSCLC; SF-539 CNS; HT29 colon; SNB-75 CNS; HOP-62 NSCLC; U251 CNS; HCC-2998 colon; OVCAR-4 ovarian.
Common to all, as to experiment: growth of human tumour cells (NCI), 48 h

On to `Cc1c(C)c(C)c(CC2(C)CSC2)c(CC2(C)CSC2)c1C`, for which the TGI in the assay with UO-31 renal, in the assay on MDA-MB-231 breast, with COLO 205 colon, in the assay on EKVX NSCLC, with 786-0 renal and in the assay with HCT-116 colon was greater than 100 µM throughout. For the same molecule, the TGI in the assay with HL-60(TB) leukemia, in the assay with DU-145 prostate, with MALME-3M melanoma, with UACC-257 melanoma, in the assay with RPMI-8226 leukemia and in the assay on SK-OV-3 ovarian was greater than 100 µM throughout. For the same molecule, the TGI in the assay with A549 NSCLC, in the assay with SF-539 CNS, in the assay on HT29 colon, in the assay with SNB-75 CNS, in the assay with HOP-62 NSCLC and in the assay with U251 CNS was greater than 100 µM in each case.

As for `Cc1cc(O)c2c(c1O)C(=O)c1cccc(O)c1C2=O`, the TGI in the assay with UO-31 renal, in the assay with MDA-MB-231 breast, in the assay with EKVX NSCLC, in the assay with 786-0 renal, in the assay with HCT-116 colon and in the assay on HL-60(TB) leukemia was greater than 100 µM each time. The TGI in the assay on DU-145 prostate, in the assay with UACC-257 melanoma, in the assay with RPMI-8226 leukemia, in the assay with SK-OV-3 ovarian, in the assay on A549 NSCLC and in the assay on SF-539 CNS was greater than 100 µM throughout. Besides, the TGI with HCC-2998 colon, in the assay with OVCAR-4 ovarian, with HT29 colon, in the assay with SNB-75 CNS, with HOP-62 NSCLC and with U251 CNS was greater than 100 µM throughout.

With `COc1cc(=O)c2c(O)c3c(O)oc(C)cc3c(OC)c2c1`, the TGI in the assay on UO-31 renal was greater than 100 µM; in the assay on MDA-MB-231 breast, 62.5 µM; in the assay on COLO 205 colon, 42.2 µM; with EKVX NSCLC, 63.8 µM; with 786-0 renal it was 86.7 µM; in the assay with HCT-116 colon, 38.4 µM. In addition, the TGI in the assay with HL-60(TB) leukemia was greater than 100 µM; in the assay with DU-145 prostate, greater than 100 µM; with MALME-3M melanoma, 47 µM; in the assay with UACC-257 melanoma it was greater than 100 µM; with RPMI-8226 leukemia, 46.4 µM; with SK-OV-3 ovarian, 71.2 µM. Also, the TGI with A549 NSCLC was 87.7 µM; in the assay on SF-539 CNS, 53.8 µM; in the assay with OVCAR-4 ovarian it was 27.9 µM; with HT29 colon it was 40.7 µM; in the assay with HOP-62 NSCLC, 76.1 µM; in the assay on U251 CNS, greater than 100 µM.

Take `CCN(CC)Cc1cc(Nc2c3ccccc3nc3c2[nH]c2ccccc23)cc(CN(CC)CC)c1O`: the TGI with UO-31 renal turned out to be 4.62 µM; in the assay with MDA-MB-231 breast, 2.62 µM; in the assay with COLO 205 colon, 1.74 µM; with EKVX NSCLC, 3.12 µM; with 786-0 renal, 0.974 µM; with HCT-116 colon, 3.33 µM. Further, the TGI with HL-60(TB) leukemia is greater than 100 µM; with DU-145 prostate, 7.99 µM; with UACC-257 melanoma it was 2.86 µM; in the assay on SK-OV-3 ovarian it was 17 µM; in the assay on A549 NSCLC, 10.4 µM; in the assay on SF-539 CNS, 2.29 µM. Further, the TGI in the assay with HCC-2998 colon was 2.27 µM; in the assay on OVCAR-4 ovarian, 1.81 µM; in the assay on HT29 colon, 5.1 µM; in the assay on SNB-75 CNS, 2.97 µM; in the assay on HOP-62 NSCLC it was 2.26 µM; in the assay with U251 CNS, 2.19 µM.

`N#C[C@H](C(=O)c1ccccc1F)c1nc2ccccc2s1`: the TGI in the assay with UO-31 renal was greater than 100 µM; with MDA-MB-231 breast, greater than 100 µM; in the assay with COLO 205 colon, 53.8 µM; in the assay on EKVX NSCLC, greater than 100 µM; in the assay on 786-0 renal it was greater than 100 µM; with HCT-116 colon, 61.3 µM. In addition, the TGI in the assay on HL-60(TB) leukemia is 79.2 µM; in the assay with DU-145 prostate it was greater than 100 µM; in the assay with MALME-3M melanoma, 56.2 µM; in the assay with UACC-257 melanoma it was greater than 100 µM; in the assay with RPMI-8226 leukemia, greater than 100 µM; in the assay with SK-OV-3 ovarian, greater than 100 µM. In addition, the TGI is greater than 100 µM in the assay with A549 NSCLC; 59.8 µM in the assay on SF-539 CNS; greater than 100 µM in the assay with HT29 colon; greater than 100 µM in the assay with SNB-75 CNS; greater than 100 µM in the assay on HOP-62 NSCLC; greater than 100 µM in the assay on U251 CNS.

Turning to `O=Cc1c2n(c3ccccc13)N[C@@](Cc1ccc(O)cc1)(C(=O)O)C2`, the TGI in the assay on UO-31 renal, in the assay with MDA-MB-231 breast, with COLO 205 colon, with EKVX NSCLC, in the assay on 786-0 renal and in the assay with HCT-116 colon was greater than 100 µM each time. The TGI was greater than 100 µM with HL-60(TB) leukemia; greater than 100 µM in the assay on DU-145 prostate; greater than 100 µM with MALME-3M melanoma; 86.9 µM in the assay on UACC-257 melanoma; greater than 100 µM in the assay with RPMI-8226 leukemia; greater than 100 µM in the assay on SK-OV-3 ovarian. Besides, the TGI in the assay on A549 NSCLC, in the assay with SF-539 CNS, in the assay on OVCAR-4 ovarian, with HT29 colon, in the assay with HOP-62 NSCLC and in the assay on U251 CNS was greater than 100 µM in each case.

Regarding `CC(=O)C1C(=O)C(=O)N(c2ccccc2)C1=O` (stereo not drawn), the TGI in the assay on UO-31 renal, in the assay with MDA-MB-231 breast, with COLO 205 colon, in the assay on EKVX NSCLC, in the assay with 786-0 renal and in the assay with HCT-116 colon was greater than 100 µM throughout. In addition, the TGI with HL-60(TB) leukemia, in the assay with DU-145 prostate, in the assay with UACC-257 melanoma, in the assay with SK-OV-3 ovarian, with A549 NSCLC and in the assay on SF-539 CNS was greater than 100 µM in each case. Also, the TGI in the assay on HCC-2998 colon, in the assay with OVCAR-4 ovarian, in the assay on HT29 colon, in the assay with SNB-75 CNS, with HOP-62 NSCLC and with U251 CNS was greater than 100 µM each time.

Consider `O=P1(Oc2ccccc2)N=P(c2ccccc2)(c2ccccc2)C=C(c2ccc(Cl)cc2)N1` (stereo not drawn), for which the TGI is 25.8 µM in the assay with UO-31 renal; 32.1 µM in the assay with MDA-MB-231 breast; 17.1 µM in the assay on COLO 205 colon; 21.6 µM in the assay on EKVX NSCLC; 28 µM in the assay on 786-0 renal; 30.5 µM in the assay with HCT-116 colon. Moreover, the TGI in the assay with HL-60(TB) leukemia was 20.5 µM; in the assay with DU-145 prostate it was 26.9 µM; in the assay with MALME-3M melanoma it was 29.6 µM; in the assay with UACC-257 melanoma, 30.8 µM; in the assay with RPMI-8226 leukemia, 9.55 µM; in the assay with SK-OV-3 ovarian, 26 µM. The TGI with A549 NSCLC came to 16.1 µM; in the assay on SF-539 CNS, 28.9 µM; in the assay with HT29 colon it was 15.5 µM; in the assay on HOP-62 NSCLC it was 33.6 µM; in the assay with U251 CNS, 18.8 µM.
